According to US4435385A, “N-Acyl-polypeptides and processes for the production thereof” (Sandoz Ltd., priority 1981, dated 1984):

Test system: gastric secretion
Test: TEST II: pentagastrin-stimulated gastric secretion in pylorus-ligated rats
Assay type: in vivo, rat
Details: male rats, i.m., 100 μg/kg pentagastrin s.c., 30 mins; dose for 50% inhibition vs untreated controls
Method: Male rats (220-280 g) are kept in the laboratory in individual cages for several days (14 hours light/day) with 48 hours fasting (but free access to water) immediately prior to the experiment. At the start of the experiment the pylorus is ligated under ether anaesthesia and 100 μg/kg pentagastrin are injected s.c. to stimulate gastric secretion. The test compounds are injected simultaneously i.m. 30 mins. later the animals are sacrificed, the volume of gastric juice measured and the acid concentration estimated (titration with thymol blue). The acid output is calculated and the percent inhibition estimated in relation to untreated controls.

C[C@H](N)C(=O)NCC(=O)N[C@H]1CSSC[C@@H](C(=O)O)NC(=O)[C@H](CO)NC(=O)[C@H]([C@@H](C)O)NC(=O)[C@H](Cc2ccccc2)NC(=O)[C@H]([C@@H](C)O)NC(=O)[C@H](CCCCN)NC(=O)[C@H](Cc2c[nH]c3ccccc23)NC(=O)[C@H](Cc2ccccc2)NC(=O)[C@H](Cc2ccccc2)NC(=O)[C@H](CC(N)=O)NC(=O)[C@H](CCCCN)NC1=O [somatostatin]
ID50 in TEST II for acid concentration: 0.035 mg/kg
